The conditions of series [1]: for pH of finished solution: 1st-3rd test. From the text:
This concentrate was then mixed with a 1 molar sodium bi-carbonate solution and diluted with the stated amount of water.

Series [2] is described as follows: Dissolving rate (time until solution is clear) of succinic acid and succinic acid-NaHCO3 adduct. It counts as physicochemical. The following applies: for Time until solution is clear: three runs. The protocol:
This solution is stirred and heated briefly until all the solids have dissolved. Then the solution is dried to constant weight (for approximately 48 hours) at approximately 105° C. in a drying oven. The product, which forms amorphous crystals, is homogenized in a mortar.

Where [3] appears, read: 12.98 g/L, 0.11 mol/l, concentrate 0.22 meq/L.
The mark [4] stands for this setting: 19.47 g/L, 0.165 mol/l, concentrate 0.33 meq/L.
The mark [5] stands for this setting: 25.96 g/L, 0.22 mol/L, concentrate 0.44 meq/L.
[6] abbreviates: 38.94 g/L, 0.33 mol/L, concentrate 0.66 meq/L.
Setting [7] is: 58.11 g/L, 0.495 mol/L, concentrate 0.99 meq/L.

Where “and” joins values, the source holds several entries; their conditions need not be identical. Equal entries are not always repeated. Where two headings read alike, the source gives them in different places.

Turning to `O=C(O)CCC(=O)O` [succinic acid], the “pH of finished solution” value in series [1] (35 mL 1 molar NaHCO3, 951 mL water, 14 mL 0.15 molar succinic acid) is 7.08 and 7.09; in series [1] (35 mL 1 molar NaHCO3, 953 mL water, 12 mL 0.15 molar succinic acid), 7.16 and 7.17; in series [1] (35 mL 1 molar NaHCO3, 955 mL water, 10 mL 0.15 molar succinic acid) it was 7.26 and 7.27; in series [1] (35 mL 1 molar NaHCO3, 957 mL water, 8 mL 0.15 molar succinic acid), 7.42 and 7.39 and 7.41; in series [1] (40 mL 1 molar NaHCO3, 946 mL water, 14 mL 0.15 molar succinic acid) it was 7.14 and 7.16 and 7.19; in series [1] (40 mL 1 molar NaHCO3, 948 mL water, 12 mL 0.15 molar succinic acid) it was 7.24 and 7.25. The “pH of finished solution” value in series [1] (40 mL 1 molar NaHCO3, 950 mL water, 10 mL 0.15 molar succinic acid) was 7.34 and 7.35 and 7.32; in series [1] (40 mL 1 molar NaHCO3, 952 mL water, 8 mL 0.15 molar succinic acid) it was 7.46 and 7.47 and 7.48. In addition, the “concentration sufficient to adjust a physiological pH” value in series [1] (in terms of the finished ready-to-use solution, relatively high sodium bicarbonate concentration) was 1.5 mmol/L. Besides, the “Time until solution is clear, Average” value is recorded as 210 in series [2] (setting [3]); 250 in series [2] (setting [4]); 358 in series [2] (setting [5]); 460 in series [2] (setting [6]); above 900 in series [2] (setting [7]). The “Time until solution is clear” value was 200 and 210 and 220 in series [2] (setting [3]); 230 and 250 and 270 in series [2] (setting [4]); 400 and 375 and 300 in series [2] (setting [5]); 510 and 420 and 450 in series [2] (setting [6]); 900 and >1080 and 960 in series [2] (setting [7]). For the same molecule, the dissolution rate result in series [2] (in water, in words) is given as “very low”.

The record behind these values is patent US6673376B1, “Method of preparing a solution, in particular a dialysis or infusion solution” (Fresenius Medical Care Deutschland GmbH, priority 1998, dated 2004).
